Source: patent US20090291945A1, “CYSTEINE PROTEASE INHIBITORS” (Teijin Pharma Limited, priority 2008, published 2009)

Target: T1, cathepsin K (Homo sapiens, UniProt P43235)
T1 construct: the active enzyme was obtained as the enzyme fraction by using detergent containing lysis buffer; made in house; host or cells: HEK293T (GenHunter Corporation), transient expression; detergent lysate used as enzyme fraction
T1 sequence (P43235 115-329): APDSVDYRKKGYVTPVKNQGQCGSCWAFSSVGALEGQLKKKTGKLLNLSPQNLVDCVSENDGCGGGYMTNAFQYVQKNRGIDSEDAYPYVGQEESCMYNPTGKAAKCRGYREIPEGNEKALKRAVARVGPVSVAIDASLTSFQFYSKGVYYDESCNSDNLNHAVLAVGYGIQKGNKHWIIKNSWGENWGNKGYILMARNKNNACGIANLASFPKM
Assay: Cathepsin K inhibitory activity (fluorescent substrate Z-Leu-Arg-MCA)
Format: biochemical
Settings: enzyme expressed in HEK293T; 15 min preincubation, 30 min reaction at room temperature, pH 5.5; read-out: Activity Intensity (cathepsin K inhibitory activity, pIC50 class) (converted)
Procedure: Cathepsin K inhibitory activities of the compounds synthesized according to the methods of the above examples were measured.
Cathepsin K used for evaluation of inhibitory activity was transiently expressed in an animal cell HEK293T (made by GenHunter Corporation) and the active enzyme was obtained as the enzyme fraction by using detergent containing lysis buffer.
The enzyme solution A was prepared at 2.1 times final concentration by diluting the enzyme fraction with assay buffer (50 mM sodium acetate, 50 mM sodium chloride, 2 mM DTT, pH 5.5). The test compound solutions B were prepared at 50 times final target concentrations by dimethylsulfoxide (DMSO). As a substrate solution C, a solution of a fluorescent substrate, benzyloxycarbonyl-L-leucyl-L-arginyl-4-methyl-coumaryl-7-amide (Z-Leu-Arg-MCA (Peptide Institute Inc.), was prepared at 10 μM by an assay buffer.
To the enzyme solution A (38.4 μL) were added the test compound solutions B (1.6 μL) and mixed individually. The mixtures were incubated at room temperature for 15 minutes. To the incubated solutions were added the substrate solution C (40 μL) and the mixtures were reacted at room temperature for 30 minutes respectively. The fluorescence intensities of the enzyme reaction solutions were measured at excitation wavelength of 355 nm and measurement wavelength of 460 nm and the enzyme activities were calculated from these fluorescence intensities caused by 7-amino-4-methylcoumarine released. The enzyme activity with using DMSO instead of the test compound solution B was taken as 100% and the inhibitory rates at each concentration of the test compound were calculated. The […] response curve was fitted to the plots. The 50% inhibitory concentration against cathepsin K was calculated from this curve.
Note that the symbols (+, ++, and +++) in this table represent the inhibitory activity values as below. Here, pIC50 is the value representing a negative logarithm of IC50, (−log10(IC50)). IC50 is a 50% inhibitory concentration.

IC50 [nM] | SMILES
31.6 to 10000 | CCOC(=O)c1ccnn1-c1ccc(NC[C@H](CC)NC(=O)[C@H](CC(C)C)N[C@@H](c2ccc(OC)nc2)C(F)(F)F)cc1 [Compound 115]
3.16 to 31.6 | CC(C)C[C@H](N[C@@H](c1ccccc1)C(F)(F)F)C(=O)N[C@@H](CN)CNc1ccc(N2CCOCC2)cc1 [Compound 128]
3.16 to 31.6 | COc1ccc(NC[C@H](CCS(C)(=O)=O)NC(=O)[C@H](CC(C)C)N[C@@H](c2ccc(S(C)(=O)=O)cc2)C(F)(F)F)c(OC)c1 [Compound 82]
3.16 to 31.6 | CC[C@@H](CNc1ccc(OCc2ccccc2)cc1)NC(=O)[C@H](CC(C)C)N[C@@H](c1ccc(OC)cc1)C(F)(F)F [Compound 97]
3.16 to 31.6 | CC[C@@H](CNc1ccc(N2CCCC2=O)cc1)NC(=O)[C@H](CC(C)C)N[C@@H](c1ccc(OC)nc1)C(F)(F)F [Compound 54]
3.16 to 31.6 | COc1ccc(NC[C@H](CCS(C)(=O)=O)NC(=O)[C@H](CC(C)C)N[C@@H](c2ccccc2)C(F)(F)F)c(OC)c1 [Compound 80]
≤ 3.16 | CC[C@@H](CNc1ccc(OCC(N)=O)cc1OC)NC(=O)[C@H](CC(C)(C)F)N[C@@H](c1ccccc1)C(F)(F)F [Compound 133, (2S)—N-[(1S)-1-({[4-(carbamoylmethoxy)-2-methoxyphenyl]amino}methyl)propyl]-2-[((1S)-2,2,2-trifluoro-1-phenylethyl)amino]-4-fluoro-4-methylpentanamide]
3.16 to 31.6 | CC[C@@H](CNc1c(OC)cccc1OC)NC(=O)[C@H](CC(C)(C)F)N[C@@H](c1ccc(Br)cc1)C(F)(F)F [Compound 15]
≤ 3.16 | CC[C@@H](CNc1ccc(N2CCOCC2)cc1)NC(=O)[C@H](CC(C)C)N[C@@H](c1ccc(OCCOC)cc1)C(F)(F)F [Compound 30]
≤ 3.16 | CC[C@@H](CNc1ccc(OC)cc1OC)NC(=O)[C@H](CC(C)(C)C)N[C@@H](c1ccccc1)C(F)(F)F [Compound 59]
≤ 3.16 | CC[C@@H](CNc1ccc(OCC(=O)O)cc1OC)NC(=O)[C@H](CC(C)C)N[C@@H](c1ccccc1)C(F)(F)F [Compound 119]
≤ 3.16 | CCOC(=O)C1CCN(c2ccc(NC[C@H](CC)NC(=O)[C@H](CC(C)(C)F)N[C@@H](c3ccccc3)C(F)(F)F)cc2)CC1 [Compound 55]
≤ 3.16 | COc1ccc([C@H](N[C@@H](CC(C)C)C(=O)N[C@H](CNc2ccc(OC)cc2OC)CC(C)C)C(F)(F)F)cc1 [Compound 65]
≤ 3.16 | CC[C@@H](CNc1ccc(N(C)C)cc1)NC(=O)[C@H](CC(C)(C)F)N[C@@H](c1ccc(-c2ccc(S(C)(=O)=O)cc2)cc1)C(F)(F)F [Compound 12]
≤ 3.16 | CC[C@@H](CNc1ccc(N2CCC(O)CC2)cc1)NC(=O)[C@H](CC(C)C)N[C@@H](c1ccccc1)C(F)(F)F [Compound 108]
≤ 3.16 | CC(C)C[C@H](N[C@@H](c1ccccc1)C(F)(F)F)C(=O)N[C@@H](CCOCc1ccccc1)CNc1ccc(N2CCOCC2)cc1 [Compound 87]
≤ 3.16 | CC[C@@H](CNc1ccc(N2CCOCC2)cc1)NC(=O)[C@H](CC(C)C)N[C@@H](c1ccc(O)cc1)C(F)(F)F [Compound 158, (2S)—N-((1S)-1-{[(4-morpholin-4-ylphenyl)amino]methyl}propyl)-2-{[(1S)-2,2,2-trifluoro-1-(4-hydroxyphenyl)ethyl]amino}-4-methylpentanamide]
3.16 to 31.6 | COc1ccc(NC[C@H](C)NC(=O)[C@H](CC(C)C)N[C@@H](c2ccc(S(C)(=O)=O)cc2)C(F)(F)F)c(OC)c1 [Compound 77]
≤ 3.16 | CC(C)C[C@H](N[C@@H](c1ccccc1)C(F)(F)F)C(=O)N[C@@H](CCCNC(=O)OCc1ccccc1)CNc1ccc(N2CCOCC2)cc1 [Compound 103]
≤ 3.16 | CC[C@@H](CNc1ccc(OCC(=O)NCCO)cc1OC)NC(=O)[C@H](CC(C)(C)F)N[C@@H](c1ccccc1)C(F)(F)F [Compound 137]
31.6 to 10000 | CC[C@@H](CNc1ccc(OC)cc1OC)NC(=O)[C@H](Cc1ccccc1)N[C@@H](c1cccs1)C(F)(F)F [Compound 62]
3.16 to 31.6 | CC[C@@H](CNc1ccc(OC(C)C(=O)OC)cc1OC)NC(=O)[C@H](CC(C)(C)F)N[C@@H](c1ccccc1)C(F)(F)F (stereo partly drawn) [Compound 21, Methyl 2-{4-[((2S)-2-{(2S)-2-[((1S)-2,2,2-trifluoro-1-phenylethyl)amino]-4-fluoro-4-methylpentanoylamino}butyl)amino]-3-methoxyphenoxy}propanoate]

IC50 [nM] | SMILES
3.16 to 31.6 | CC[C@@H](CNc1ccc(OCc2ccccc2)cc1)NC(=O)[C@H](CC(C)C)N[C@@H](c1ccccc1)C(F)(F)F [Compound 96]
3.16 to 31.6 | CC[C@@H](CNc1ccc(OC(C)(C)C(=O)O)cc1OC)NC(=O)[C@H](CC(C)(C)F)N[C@@H](Cc1ccccc1)C(F)(F)F [Compound 132, 2-(4-{[(2S)-2-((2S)-2-{[(1S)-2,2,2-trifluoro-1-benzylethyl]amino}-4-fluoro-4-methylpentanoylamino)butyl]amino}-3-methoxyphenoxy)-2-methylpropanoic acid]
31.6 to 10000 | CC[C@@H](CNc1ccc2c(c1)OCO2)NC(=O)[C@H](CC(C)C)N[C@@H](c1ccccc1)C(F)(F)F [Compound 99]
3.16 to 31.6 | COc1ccc([C@H](N[C@@H](CC(C)C)C(=O)N[C@@H](CCSC)CNc2ccc(OC)cc2OC)C(F)(F)F)cc1 [Compound 67]
≤ 3.16 | CCOC(=O)C1CCN(c2ccc(NC[C@H](CC)NC(=O)[C@H](CC(C)C)N[C@@H](c3ccccc3)C(F)(F)F)cc2)CC1 [Compound 49]
≤ 3.16 | CC[C@@H](CNc1ccc(OCC(=O)N2CCCC2)cc1OC)NC(=O)[C@H](CC(C)(C)F)N[C@@H](c1ccccc1)C(F)(F)F [Compound 135]
≤ 3.16 | CC[C@@H](CNc1ccc(OCCS(C)(=O)=O)cc1OC)NC(=O)[C@H](CC(C)C)N[C@@H](c1ccc(=O)[nH]c1)C(F)(F)F [Compound 41]
3.16 to 31.6 | CC[C@@H](CNc1ccc(OCCS(C)(=O)=O)cc1OC)NC(=O)[C@H](CC(C)C)N[C@@H](c1ccc(OC)nc1)C(F)(F)F [Compound 38]
31.6 to 10000 | CC[C@@H](CNc1ccc(-n2nccc2C(=O)O)cc1)NC(=O)[C@H](CC(C)C)N[C@@H](c1ccccc1)C(F)(F)F [Compound 143]
31.6 to 10000 | CC[C@@H](CNc1ccc(-n2cccn2)cc1)NC(=O)[C@H](CC(C)C)N[C@@H](c1ccc(OC)nc1)C(F)(F)F [Compound 48]
≤ 3.16 | CC[C@@H](CNc1ccc(OC)cc1OC)NC(=O)[C@H](CC(C)C)N[C@@H](c1ccc(OC)cc1)C(F)(F)F [Compound 95]
≤ 3.16 | CC[C@@H](CNc1ccc(OCC#N)cc1OC)NC(=O)[C@H](CC(C)(C)F)N[C@@H](c1ccccc1)C(F)(F)F [Compound 161, (2S)—N-[(1S)-1-({[4-(cyanomethoxy)-2-methoxyphenyl]amino}methyl)propyl]-2-[((1S)-2,2,2-trifluoro-1-phenylethyl)amino]-4-fluoro-4-methylpentanamide]
≤ 3.16 | CC[C@@H](CNc1ccc(N2C[C@@H](C)O[C@@H](C)C2)cc1)NC(=O)[C@H](CC(C)C)N[C@@H](c1ccccc1)C(F)(F)F [Compound 51]
3.16 to 31.6 | COc1ccc(NC[C@H](C)NC(=O)[C@H](CC(C)C)N[C@@H](c2cccnc2)C(F)(F)F)c(OC)c1 [Compound 78]
31.6 to 10000 | CC[C@@H](CNc1ccc(OC)cc1OC)NC(=O)[C@@H](N[C@@H](c1ccccc1)C(F)(F)F)C1CCCCC1 [Compound 61]
≤ 3.16 | CC[C@@H](CNc1ccc(OCC(=O)N(C)C)cc1OC)NC(=O)[C@H](CC(C)(C)F)N[C@@H](c1ccccc1)C(F)(F)F [Compound 134]
≤ 3.16 | CC[C@@H](CNc1ccc(N2CCSCC2)cc1)NC(=O)[C@H](CC(C)(C)F)N[C@@H](c1ccc(Br)cc1)C(F)(F)F [Compound 18]
≤ 3.16 | CC(C)C[C@H](N[C@@H](c1ccccc1)C(F)(F)F)C(=O)N[C@@H](CCNC(=O)OCc1ccccc1)CNc1ccc(N2CCOCC2)cc1 [Compound 105]
3.16 to 31.6 | CC[C@@H](CNc1ccc(OC)nc1OC)NC(=O)[C@H](CC(C)(C)F)N[C@@H](c1ccc(Br)cc1)C(F)(F)F [Compound 19]
≤ 3.16 | CC[C@@H](CNc1ccc(OCCO)cc1OC)NC(=O)[C@H](CC(C)(C)F)N[C@@H](c1ccccc1)C(F)(F)F [Compound 42]
≤ 3.16 | CC[C@@H](CNc1ccc(N(C)C)cc1)NC(=O)[C@H](CC(C)(C)F)N[C@@H](c1ccc(Br)cc1)C(F)(F)F [Compound 13]
≤ 3.16 | CC(C)C[C@H](N[C@@H](c1ccccc1)C(F)(F)F)C(=O)N[C@@H](CCC#N)CNc1ccc(N2CCOCC2)cc1 [Compound 92]
